What was measured:
SF763 = experiment: Radiosensitization of radioresistant human glioma cell line SF763 (surviving fraction after 2 Gy); type: cell-based; details: 2 nM, 48 h prior to irradiation (2 Gy)
Experimental: (§1) Radioresistant human glioma cell lines (SF763, U87, U251) were treated with compound 75, 48 h prior to irradiation (2 Gy). The dose administered was 0.4 nM for U251 and 2 nM for SF763 and U87.

[1] = test system: LoVo human colon tumor cells; experiment: LoVo human colon tumor xenograft in athymic nude mice, oral treatment with or without single 7 Gy irradiation on day 32; type: in vivo
Source text: Male athymic nude mice weighing approximately 22 to 25 g were inoculated subcutaneously in the inguinal region with 1×10^6 of LoVo human colon tumor cells (LoVo cells) on day 0. After three weeks to allow tumors to become established (diameter approximately 0.5 to 1 cm), treatment was started with solvent or compound 75 via the oral route, and either with or without a single shot irradiation on day 32. Parameters for activity were tumor growth rate and weight of the tumors at day 42.
Compound 75 was dissolved in water and acidified with 1 N HCl solution to pH 2.5 and administered orally (po) as 0.1 ml of compound solution per 10 g mouse body weight twice daily (bid). The dose administered was either 50 or 100 mg compound per kg bodyweight; treatment either preceded irradiation (days 22-32), followed irradiation (days 32-42) or continued throughout the duration of the experiment (days 22-42).
In each arm of the experiment 16 animals were included. The column ‘tumor (g)’ contains the median of the tumor weight of the animals sacrificed at day 42 of the experiment. FIGS. 1 and 2 represent the observed data in graphical form.

U251 = experiment: Radiosensitization of radioresistant human glioma cell line U251 (surviving fraction after 2 Gy); type: cell-based; details: 0.4 nM, 48 h prior to irradiation (2 Gy)
Experimental: as §1

U87 = experiment: Radiosensitization of radioresistant human glioma cell line U87 (surviving fraction after 2 Gy); type: cell-based; details: 2 nM, 48 h prior to irradiation (2 Gy)
Experimental: as §1

Compound: Cn1cncc1[C@@](N)(c1ccc(Cl)cc1)c1ccc2c(c1)c(-c1cccc(Cl)c1)cc(=O)n2C [Compound 75, (+)-(R)-6-[amino(4-chlorophenyl)(1-methyl-1H-imidazol-5-yl)methyl]-4-(3-chloro-phenyl)-1-methyl-2(1H)-quinolinone]
- decrease of surviving fraction after irradiation (SF763): about 55%
- tumor (g), median tumor weight at day 42 ([1]; Group II, 50 mpk po bid, day 22-42, irradiation none): 0.255 g
- tumor (g), median tumor weight at day 42 ([1]; Group III, 50 mpk po bid, day 22-32, irradiation none): 0.273 g
- tumor (g), median tumor weight at day 42 ([1]; Group IV, 50 mpk po bid, day 32-42, irradiation none): 0.295 g
- tumor (g), median tumor weight at day 42 ([1]; Group IX, 50 mpk po bid, day 22-32, irradiation 7 Gy on day 32): 0.156 g
- tumor (g), median tumor weight at day 42 ([1]; Group V, 100 mpk po bid, day 22-42, irradiation none): 0.205 g
- tumor (g), median tumor weight at day 42 ([1]; Group VI, 100 mpk po bid, day 22-32, irradiation none): 0.234 g
- tumor (g), median tumor weight at day 42 ([1]; Group VII, 100 mpk po bid, day 32-42, irradiation none): 0.277 g
- tumor (g), median tumor weight at day 42 ([1]; Group VIII, 50 mpk po bid, day 22-42, irradiation 7 Gy on day 32): 0.207 g
- tumor (g), median tumor weight at day 42 ([1]; Group X, 50 mpk po bid, day 32-42, irradiation 7 Gy on day 32): 0.259 g
- tumor (g), median tumor weight at day 42 ([1]; Group XI, 100 mpk po bid, day 22-42, irradiation 7 Gy on day 32): 0.164 g
- tumor (g), median tumor weight at day 42 ([1]; Group XII, 100 mpk po bid, day 22-32, irradiation 7 Gy on day 32): 0.141 g
- tumor (g), median tumor weight at day 42 ([1]; Group XIII, 100 mpk po bid, day 32-42, irradiation 7 Gy on day 32): 0.214 g
- effect of treatment on the effect of irradiation (statistical analysis) ([1]; both 50 and 100 mpk): potentiates the effect of irradiation
- effect of pretreatment and irradiation on tumor weight compared to irradiation alone ([1]; pretreatment, both 50 and 100 mpk, plus irradiation): reduces tumor weight in a statistically significant manner
- decrease of surviving fraction after irradiation (U251): 25%
- decrease of surviving fraction after irradiation (U87): about 55%

Source: US6545020B1, “Farnesyl Protein transferase inhibitors with in vivo radiosensitizing properties” (Janssen Pharmaceutica, N.V., priority 1998, dated 2003)
